Consider 21 compounds from patent publication US7294625B2, “Pyrazole compounds” (Ube Industries, Ltd., priority 2002, dated 2007).

By IC50 is commonly meant the concentration needed to halve the response being measured.

One assay concerns the target T1, p38MAP kinase (Homo sapiens, UniProt Q16539).
T1 construct: purchased Stratagene (p38MAP kinase); Upstate (SKK/MKK6) #206145 (p38MAP kinase); #14-225 or #14-303 (SKK/MKK6)
The assay can be described thus: Enzyme inhibitory test against p38MAP kinase. In kind it is biochemical. The conditions noted are these: active type p38MAP kinase, EGFR peptide substrate, [γ-32P]ATP, 30° C. 30 minutes; read-out: p38MAP kinase inhibition IC50 value. As for the experimental part: Test Example 1 Enzyme Inhibitory Test Against p38MAP Kinase
(1) Preparatoin of Active Type p38MAP Kinase
An active type p38MAP kinase was prepared by incubation in a reaction solution (25 mM Tris-HCl pH 7.5, 5 mM β-glycerolphosphate, 2 mM DTT, 0.1 mM […], 10 mM MgCl2, 1 mM ATP) containing p38MAP kinase (Stratagene, #206145) and SKK/MKK6 (Upstate, #14-225 or #14-303) at 30° C. for 1 to 3 hours. This enzyme solution was diluted 5 to 10-fold with Stock Buffer (50 mM Tris-HCl pH 7.5, 0.1 mM EGTA, 0.2 mM Orthovanadate, 0.1% 2-ME, 10% glycerol, 0.03% Brij-35, 0.5 μM Microcystin), and preserved under freezing (−80° C.).
(2) Measurement of Inhibitory Activity of p38MAP Kinase
To 34 μL of a reaction solution (25 mM HEPES, pH 7.5, 10 mM Magnesium acetate) containing the active type p38MAP kinase prepared as mentioned above and a substrate (final concentration: […] EGFR; […]) was added 1 μL of DMSO, or a compound to be tested and dissolved in DMSO, then, the mixture was subjected to preincubation at 4° C. for 30 minutes. A reaction was started by adding 5 μL of an ATP solution (400 μM ATP, 1 μCi/μL [γ-^32P]ATP), and reacted at 30° C. for 30 minutes, and then, the reaction was stopped by adding 5 μL of 250 mM H3PO4. 25 μL of the reaction solution was placed on chromatography paper (Whatman, #P81), dried for about 2 minutes, and washed with 75 mM H3PO4. Water was removed by using 95% ethanol, it was transferred to a bial containing liquid scintillation cocktail (available from Nacalai Tesque), and radioactivity was measured. A concentration (IC50 value) of a compound to be tested necessary for inhibiting 50% of phosphrylation (^32P) of the substrate by the enzyme was calculated as compared to that non-treated by the compound to be tested by XL-fit (available from IDBS).

Assay [1] relates to cytokine (IL-1β and TNF-α) induced IL-6 production. The assay can be described thus: Inhibition of IL-6 production in rat (in vivo). Particulars: LEW rats, 3 mg/Kg oral, 1 hour before IL-1β/TNF-α i.v., serum IL-6 two hours later. How it is done:
Test Example 3 Inhibition of IL-6 Production in Rat (In Vivo)
A cytokine mixed solution of IL-1β and TNF-α was intravenously injected to rats to induce production of IL-6. A mixed solution of IL-1β (available from R&D) (4 μg/ml) and TNF-α (available from R&D) (2 μg/ml) dissolved in PBS was administered to tail vein of LEW series rats (female, body weight: about 140 to 170 g, available from Charles River Japan, Inc.) fasted overnight with a ratio of 1 ml/kg of the body weight. Two hours later, blood was collected from the neck vein under ether anesthesia. The collected blood was centrifuged under the conditions of 20° C. and 10,000×g to separate serum. IL-6 concentration in the serum was measured by using an enzyme-linked immunosorbent assay (ELISA) kit (IL-6 ELISA KIT, available from R&D).
The test compound or the vehicle was orally administered with a dose of 10 ml/kg of the body weight before 1 hour of the injection of the cytokine mixed solution. The control group to which the vehicle was administered and the group of the compound to be tested were each 5 rats per group. An inhibitory ratio of the group of the compound to be tested based on control group was calculated.

For assay [2], the system named is LPS-induced TNF-α production in human PBMC. The assay can be described thus: Inhibition of TNF-α production in human PBMC (in vitro). It is filed as cell-based. The conditions noted are these: LPS 10 μg/ml, 18 hours, TNF-α ELISA, read-out: Inhibitory effect on LPS-induced TNF-α production in human PBMC IC50 value. As for the experimental part:
Test Example 2 Inhibition of TNF-α Production in Human PBMC (In Vitro)
Test was carried out according to the method of Welker et al. (Int. Arch. Allergy Immunol., 109, 110-115 (1996).
Heparin-added blood collected from healthy volunteer with consent was underlayed with a specific gravity-separating solution (Lymphoprep; available from Daiichi Pure Chemicals Co., Ltd.), subjected to centrifugation (800×g, 25 minutes), and a mononuclear cell layer was recovered. The obtained mononuclear cells (human PBMC) were washed twice with PBS (available from SIGMA), and resuspended in 1% FCS-containing RPMI aqueous solution (available from GIBCO) so that the cells became 5×10^6 cells/mL. The thus obtained cell suspension was diluted 10-fold with 1% FCS-containing RPMI medium, DMSO (or the compound to be tested) with a final concentration of 0.5% was added thereto, and cultured at 37° C. in 5% CO2 for 1 hour. After that, LPS (derived from E. Coli 055:5B, available from SIGMA) solution prepared by PBS was added so that the final concentration thereof being 10 μg/ml, and cultivation was carried out for further 18 hours. After the cultivation, culture medium was subjected to centrifugation (800×g, 10 minutes), and a concentration of TNF-α produced in the supernatant was measured by an enzyme-linked immunosorbent assay (ELISA) kit (TNF-α ELISA Kit, available from R&D). The concentration (IC50 value) of the test compound for inhibiting 50% of TNF-α production was calcualted by using XL-fit (available from IDBS).

T1 sequence (Q16539 whole entry): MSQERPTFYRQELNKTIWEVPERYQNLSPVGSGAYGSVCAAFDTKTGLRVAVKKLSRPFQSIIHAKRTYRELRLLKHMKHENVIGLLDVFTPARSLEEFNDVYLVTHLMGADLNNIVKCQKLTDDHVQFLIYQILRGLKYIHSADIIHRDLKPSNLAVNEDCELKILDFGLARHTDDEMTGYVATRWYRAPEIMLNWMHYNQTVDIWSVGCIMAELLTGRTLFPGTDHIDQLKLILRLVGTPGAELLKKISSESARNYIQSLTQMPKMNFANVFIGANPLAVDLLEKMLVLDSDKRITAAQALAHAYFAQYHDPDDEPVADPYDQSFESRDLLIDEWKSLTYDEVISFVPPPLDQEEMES

With `O=c1ccc(-n2cc(-c3ccncc3)c(-c3ccc(F)cc3)n2)n[nH]1` [Example 1, 3-(4-Fluorophenyl)-1-(1,6-dihydro-6-oxopyridazin-3-yl)-4-(pyridin-4-yl)-1H-pyrazole], at p38MAP kinase, the half-maximal inhibitory concentration (IC50) is 8.9 nM.

For `CNc1cc(-c2cn(-c3ccc(=O)[nH]n3)nc2-c2ccc(F)cc2)ccn1` [Example 3, 3-(4-Fluorophenyl)-1-(1,6-dihydro-6-oxopyridazin-3-yl)-4-(2-methylaminopyridin-4-yl)-1H-pyrazole], in assay [1], the “Rat cytokine induced IL-6 production inhibiting ratio (%) @3 mg/Kg” value stood at 81%.

With `Nc1cc(-c2cn(-c3cc(N)c(=O)[nH]n3)nc2-c2ccc(F)cc2)ccn1` [Example 4, 1-(5-Amino-1,6-dihydro-6-oxopyridazin-3-yl)-4-(2-aminopyridin-4-yl)-3-(4-fluorophenyl)-1H-pyrazole], the IC50 is 2.5 nM at p38MAP kinase and 28 nM in assay [2].

Turning to `CC(=O)Nc1cc(-c2cn(-c3ccc4nncn4n3)nc2-c2ccc(F)cc2)ccn1` [Example 9, 4-(2-Acetylaminopyridin-4-yl)-3-(4-fluorophenyl)-1-([1,2,4]triazolo[4,3-b]pyridazin-6-yl)-1H-pyrazole], the IC50 at p38MAP kinase was found to be 5.4 nM.

Take `COC(=O)Nc1cc(-c2cn(-c3ccc4nncn4n3)nc2-c2ccc(F)cc2)ccn1` [Example 11, 3-(4-Fluorophenyl)-4-(2-methoxycarbonylaminopyridin-4-yl)-1-([1,2,4]triazolo[4,3-b]pyridazin-6-yl)-1H-pyrazole]: the IC50 on p38MAP kinase stood at 6.1 nM.

Take `CC(Nc1cc(-c2cn(-c3ccc4nncn4n3)nc2-c2ccc(F)cc2)ccn1)c1ccccc1` (stereo not shown) [Example 18, 3-(4-Fluorophenyl)-4-[2-(1-phenethylamino)pyridin-4-yl]-1-([1,2,4]triazolo[4,3-b]pyridazin-6-yl)-1H-pyrazole]: the IC50 at p38MAP kinase came to 3.7 nM.

For `Nc1cc(-c2cn(-c3ccc(=O)[nH]n3)nc2-c2cccc(F)c2)ccn1` [Example 22, 4-(2-Aminopyridin-4-yl)-3-(3-fluorophenyl)-1-(1,6-dihydro-6-oxopyridazin-3-yl)-1H-pyrazole], at p38MAP kinase, the IC50 stood at 6.6 nM.

As to `Nc1cc(-c2cn(-c3ccc(=O)[nH]n3)nc2-c2cccc(C(F)(F)F)c2)ccn1` [Example 25, 4-(2-Aminopyridin-4-yl)-1-(1,6-dihydro-6-oxopyridazin-3-yl)-3-(3-trifluoromethylphenyl)-1H-pyrazole], the half-maximal inhibitory concentration (IC50) on p38MAP kinase was determined as 5.9 nM.

`CCNc1cc(-c2cn(-c3ccc(=O)[nH]n3)nc2-c2ccc(F)cc2)ccn1` [Example 27, 4-(2-Ethylaminopyridin-4-yl)-3-(4-fluorophenyl)-1-(1,6-dihydro-6-oxopyridazin-3-yl)-1H-pyrazole]: at p38MAP kinase, the IC50 came out at 1.3 nM.

`O=c1ccc(-n2cc(-c3ccnc(NCC(F)(F)F)c3)c(-c3ccc(F)cc3)n2)n[nH]1` [Example 28, 3-(4-fluorophenyl)-1-(1,6-dihydro-6-oxopyridazin-3-yl)-4-[2-(2,2,2-trifluoroethyl)aminopyridin-4-yl]-1H-pyrazole]: in assay [2], the 50% inhibitory concentration (IC50) is 7 nM.

Take `Cc1cc(-n2cc(-c3ccnc(N)c3)c(-c3ccc(F)cc3)n2)n[nH]c1=O` [Example 32, 4-(2-Aminopyridin-4-yl)-3-(4-fluorophenyl)-1-(1,6-dihydro-5-methyl-6-oxopyridazin-3-yl)-1H-pyrazole]: on p38MAP kinase, the IC50 stood at 3.4 nM.

As to `O=c1ccc(-n2cc(-c3ccnc(NCC(F)(F)F)c3)c(-c3ccccc3F)n2)n[nH]1` [Example 34, 3-(2-Fluorophenyl)-1-(1,6-dihydro-6-oxopyridazin-3-yl)-4-[2-(2,2,2-trifluoroethyl)aminopyridin-4-yl]-1H-pyrazole], at p38MAP kinase, the IC50 amounted to 0.2 nM.

Take `CC(=O)Nc1cc(-c2cn(-c3ccc(=O)[nH]n3)nc2-c2ccccc2F)ccn1` [Example 35, 4-(2-Acetylaminopyridin-4-yl)-3-(2-fluorophenyl)-1-(1,6-dihydro-6-oxopyridazin-3-yl)-1H-pyrazole]: in assay [2], the IC50 worked out at 6 nM.

Regarding `Nc1cc(-c2cn(-c3ccc4nncn4n3)nc2-c2ccc(F)c(F)c2)ccn1` [Example 40, 4-(2-Aminopyridin-4-yl)-3-(3,4-difluorophenyl)-1-([1,2,4]triazolo[4,3-b]pyridazin-6-yl)-1H-pyrazole], on p38MAP kinase, the IC50 came to 8.7 nM.

In the case of `O=C(Nc1cc(-c2cn(-c3ccc4nncn4n3)nc2-c2ccc(F)cc2)ccn1)C1CC1` [Example 43, 4-(2-Cyclopropylcarbonylaminopyridin-4-yl)-3-(4-fluorophenyl)-1-([1,2,4]triazolo[4,3-b]pyridazin-6-yl)-1H-pyrazole], in assay [2], the 50% inhibitory concentration (IC50) was found to be 14 nM.

Turning to `O=C(Nc1cc(-c2cn(-c3ccc4nncn4n3)nc2-c2ccc(F)cc2)ccn1)C1CCCC1` [Example 45, 4-(2-Cyclopentylcarbonylaminopyridin-4-yl)-3-(4-fluorophenyl)-1-([1,2,4]triazolo[4,3-b]pyridazin-6-yl)-1H-pyrazole], the half-inhibitory concentration (IC50) at p38MAP kinase was found to be 4.9 nM.

As for `Nc1cc(-c2cn(C3=NNC(=O)CC3)nc2-c2ccccc2F)ccn1` [Example 55, 4-(2-Aminopyridin-4-yl)-3-(2-fluorophenyl)-1-(1,4,5,6-tetrahydro-6-oxopyridazin-3-yl)-1H-pyrazole], in assay [2], the concentration for half-maximal inhibition (IC50) is 36 nM.

Turning to `CC(=O)Nc1cc(-c2cn(C3=NNC(=O)CC3)nc2-c2ccc(F)cc2)ccn1` [Example 57, 4-(2-Acetylaminopyridin-4-yl)-3-(4-fluorophenyl)-1-(1,4,5,6-tetrahydro-6-oxopyridazin-3-yl)-1H-pyrazole], the IC50 on p38MAP kinase stood at 2.1 nM.

Regarding `O=C1CCC(n2cc(-c3ccnc(NCC(F)(F)F)c3)c(-c3ccccc3F)n2)=NN1` [Example 61, 3-(2-Fluorophenyl)-1-(1,4,5,6-tetrahydro-6-oxopyridazin-3-yl)-4-[2-(2,2,2-trifluoroethyl)aminopyridin-4-yl]-1H-pyrazole], the IC50 in assay [2] amounted to 4 nM.

On to `CC(=O)Nc1cc(-c2cn(C3=NNC(=O)CC3)nc2-c2ccccc2F)ccn1` [Example 62, 4-(2-Acetylaminopyridin-4-yl)-3-(2-fluorophenyl)-1-(1,4,5,6-tetrahydro-6-oxopyridazin-3-yl)-1H-pyrazole], for which the concentration for half-maximal inhibition (IC50) on p38MAP kinase amounted to 1.3 nM.

Turning to `O=C1CCC(n2cc(-c3ccnc(NC(=O)C4CC4)c3)c(-c3ccccc3F)n2)=NN1` [Example 65, 4-(2-Cyclopropylcarbonylaminopyridin-4-yl)-3-(2-fluorophenyl)-1-(1,4,5,6-tetrahydro-6-oxopyridazin-3-yl)-1H-pyrazole], the concentration for half-maximal inhibition (IC50) in assay [2] was found to be 15 nM.
